The source of these data is PubChem BioAssay AID248 (DTP/NCI, 2004).

Where “and” joins values, the source holds several entries; their conditions need not be identical. Equal entries are not always repeated. Inconclusive results and toxic doses are left out. Peptide text beside a SMILES is read from it. * marks the point of attachment. Cbz = O=C(OCc1ccccc1)*

The subject of the test is L1210 leukemia ip in BDF1 mice, survival T/C. Description: NCI In Vivo Anticancer Drug Screen. Data for tumor model L1210 Leukemia (intraperitoneal) in B6D2F1 (BDF1) mice. The conditions noted are these: endpoint: mean survival time, higher = longer survival. The procedure, abridged: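 Value reflects the ratio of survival in compound-treated mice to survival in vehicle-treated controls, with both groups carrying the same transplanted tumor.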

[1] abbreviates: dose: 100.0 mg/kg/injection, schedule: Q01DX009 (ip), vehicle: saline with Tween-80.
Setting [2] is: dose: 100.0 mg/kg/injection, schedule: Q04DX003 (ip), vehicle: saline with Tween-80.
Where [3] appears, read: dose: 200.0 mg/kg/injection, schedule: Q01DX009 (ip), vehicle: saline with Tween-80.
Setting [4] is: dose: 200.0 mg/kg/injection, schedule: Q04DX003 (ip), vehicle: saline with Tween-80.
Setting [5] is: dose: 400.0 mg/kg/injection, schedule: Q01DX009 (ip), vehicle: saline with Tween-80.
[6] abbreviates: dose: 400.0 mg/kg/injection, schedule: Q04DX003 (ip), vehicle: saline with Tween-80.
[7] abbreviates: dose: 100.0 mg/kg/injection, schedule: Q01DX009 (ip), vehicle: Klucel (hydroxypropylcellulose) (HPC).
[8] abbreviates: dose: 200.0 mg/kg/injection, schedule: Q01DX009 (ip), vehicle: Klucel (hydroxypropylcellulose) (HPC).
Setting [9] is: dose: 100.0 mg/kg/injection, schedule: Q01DX001 (ip), vehicle: saline.
[10] abbreviates: dose: 100.0 mg/kg/injection, schedule: Q01DX001 (ip), vehicle: Klucel (hydroxypropylcellulose) (HPC).
Setting [11] is: dose: 100.0 mg/kg/injection, schedule: Q04DX003 (ip), vehicle: Klucel (hydroxypropylcellulose) (HPC).
Setting [12] is: dose: 200.0 mg/kg/injection, schedule: Q01DX001 (ip), vehicle: Klucel (hydroxypropylcellulose) (HPC).
Where [13] appears, read: dose: 200.0 mg/kg/injection, schedule: Q04DX003 (ip), vehicle: Klucel (hydroxypropylcellulose) (HPC).
[14] abbreviates: dose: 400.0 mg/kg/injection, schedule: Q01DX001 (ip), vehicle: Klucel (hydroxypropylcellulose) (HPC).
The mark [15] stands for this setting: dose: 400.0 mg/kg/injection, schedule: Q04DX003 (ip), vehicle: Klucel (hydroxypropylcellulose) (HPC).
Where [16] appears, read: dose: 75.0 mg/kg/injection, schedule: Q01DX009 (ip), vehicle: saline.

Regarding `S=C(NC1CCCCC1)NC1CC2C=CC1C2` (centres undefined), the T/C (dose: 100.0 mg/kg/injection, schedule: Q04DX002 (ip), vehicle: saline with Tween-80) was 90 % of control; the T/C (dose: 200.0 mg/kg/injection, schedule: Q04DX002 (ip), vehicle: saline with Tween-80) was 93 % of control; the T/C (dose: 400.0 mg/kg/injection, schedule: Q04DX002 (ip), vehicle: saline with Tween-80) was 93 % of control.
In the case of `C/C(=C1/c2ccccc2-c2n[nH]c(C)c21)S(=O)(=O)O`, the T/C reads like this: under setting [1], 95 % of control; under setting [2], 94 % of control; under setting [3], 88 % of control; under setting [4], 105 % of control; under setting [5], 95 % of control; under setting [6], 91 % of control.
On to `O=C(NCC(S)c1ccc(Cl)cc1)C(F)(F)F` (centres undefined), for which the T/C is, setting by setting: under setting [4], 88 % of control; under setting [6], 86 % of control.
Take `Ic1ccc(C2CC(c3ccccc3)=NN2c2ccccc2)cc1` (centres undefined): the T/C runs as follows: under setting [1], 96 % of control; under setting [3], 92 % of control; under setting [5], 91 % of control.
With `CC(=O)c1cccc(NC(=O)N2CCCCC2C)c1` (centres undefined), the T/C under setting [7] was 111 % of control; the T/C under setting [8] was 112 % of control; the T/C (dose: 400.0 mg/kg/injection, schedule: Q01DX009 (ip), vehicle: Klucel (hydroxypropylcellulose) (HPC)) was 103 % of control.
With `O=NN(CCCl)C(=O)Nc1ccc(NC(=O)N(CCCl)N=O)cc1`, the T/C under setting [9] was 201 % of control; the T/C (dose: 200.0 mg/kg/injection, schedule: Q01DX001 (ip), vehicle: saline) was 182 % of control; the T/C (dose: 300.0 mg/kg/injection, schedule: Q01DX001 (ip), vehicle: saline) is 230 % of control; the T/C (dose: 400.0 mg/kg/injection, schedule: Q01DX001 (ip), vehicle: saline) was 264 % of control; the T/C (dose: 500.0 mg/kg/injection, schedule: Q01DX001 (ip), vehicle: saline) is 285 % of control; the T/C (dose: 600.0 mg/kg/injection, schedule: Q01DX001 (ip), vehicle: saline) is 300 % of control. The T/C runs as follows: (dose: 800.0 mg/kg/injection, schedule: Q01DX001 (ip), vehicle: saline) 291 % of control; (dose: 1000.0 mg/kg/injection, schedule: Q01DX001 (ip), vehicle: saline) 268 % of control.
Consider `CCCCCCSc1nccnc1C`, for which the T/C reads like this: (dose: 25.0 mg/kg/injection, schedule: Q01DX009 (ip), vehicle: Klucel (hydroxypropylcellulose) (HPC)) 100 % of control; (dose: 50.0 mg/kg/injection, schedule: Q01DX001 (ip), vehicle: Klucel (hydroxypropylcellulose) (HPC)) 92 % of control; (dose: 50.0 mg/kg/injection, schedule: Q01DX009 (ip), vehicle: Klucel (hydroxypropylcellulose) (HPC)) 92 % of control and 96 % of control; (dose: 50.0 mg/kg/injection, schedule: Q04DX002 (ip), vehicle: Klucel (hydroxypropylcellulose) (HPC)) 92 % of control; (dose: 50.0 mg/kg/injection, schedule: Q04DX003 (ip), vehicle: Klucel (hydroxypropylcellulose) (HPC)) 93 % of control; under setting [10], 95 % of control. In addition, the T/C by setting is: under setting [7], 123 % of control and 91 % of control; (dose: 100.0 mg/kg/injection, schedule: Q04DX002 (ip), vehicle: Klucel (hydroxypropylcellulose) (HPC)) 102 % of control; under setting [11], 95 % of control; under setting [12], 98 % of control; under setting [8], 100 % of control; (dose: 200.0 mg/kg/injection, schedule: Q04DX002 (ip), vehicle: Klucel (hydroxypropylcellulose) (HPC)) 87 % of control. Moreover, the T/C under setting [13] was 92 % of control; the T/C under setting [14] was 98 % of control; the T/C (dose: 400.0 mg/kg/injection, schedule: Q04DX002 (ip), vehicle: Klucel (hydroxypropylcellulose) (HPC)) is 94 % of control; the T/C under setting [15] was 87 % of control.
In the case of `CCCCCCP(=O)(O)O`, the T/C under setting [1] is 88 % of control.
Take `Cc1c(Cl)c(C)c(Cl)c(CCl)c1Cl`: the T/C by setting is: (dose: 100.0 mg/kg/injection, schedule: Q01DX009 (ip), vehicle: saline sonified) 100 % of control; under setting [11], 97 % of control; (dose: 200.0 mg/kg/injection, schedule: Q01DX009 (ip), vehicle: saline sonified) 95 % of control; under setting [13], 89 % of control; (dose: 400.0 mg/kg/injection, schedule: Q01DX009 (ip), vehicle: saline sonified) 91 % of control; under setting [15], 92 % of control.
Regarding `C=CC1C[N+]2(SS(=O)(=O)O)CCC1CC2C(O)c1ccnc2ccc(OC)cc12` (centres undefined), the T/C reads like this: (dose: 18.8 mg/kg/injection, schedule: Q01DX009 (ip), vehicle: saline) 91 % of control; (dose: 37.5 mg/kg/injection, schedule: Q01DX009 (ip), vehicle: saline) 94 % of control; under setting [16], 88 % of control.
For `c1ccc(SCCCCSc2ccccc2)cc1`, the T/C under setting [16] was 107 % of control; the T/C (dose: 75.0 mg/kg/injection, schedule: Q04DX003 (ip), vehicle: saline) was 95 % of control; the T/C (dose: 150.0 mg/kg/injection, schedule: Q01DX009 (ip), vehicle: saline) was 90 % of control; the T/C (dose: 150.0 mg/kg/injection, schedule: Q04DX003 (ip), vehicle: saline) was 100 % of control; the T/C (dose: 300.0 mg/kg/injection, schedule: Q01DX009 (ip), vehicle: saline) is 93 % of control; the T/C (dose: 300.0 mg/kg/injection, schedule: Q04DX003 (ip), vehicle: saline) is 97 % of control.
Take `O=C(C(=Nc1ccccc1)c1ccccc1)c1ccccc1`: the T/C by setting is: under setting [2], 96 % of control; under setting [4], 94 % of control.
On to `O=[N+]([O-])c1cc(Cl)ccc1S(=O)(=O)O`, for which the T/C by setting is: under setting [11], 101 % of control; under setting [13], 93 % of control; under setting [15], 98 % of control.
Regarding `O=P1(Cc2ccccc2)CCC(O)=C1c1ccccc1` (centres undefined), the T/C reads like this: under setting [2], 94 % of control; under setting [4], 102 % of control; under setting [6], 91 % of control.
For `CC(=O)[C@H]1CC[C@H]2[C@@H]3CCC4=CC(=O)[C@H](C)C[C@]4(C)[C@@]3(F)[C@@H](O)C[C@]12C`, the T/C by setting is: (dose: 125.0 mg/kg/injection, schedule: Q01DX Z (sc), vehicle: steriod suspending solution) 105 % of control; (dose: 250.0 mg/kg/injection, schedule: Q01DX Z (sc), vehicle: steriod suspending solution) 111 % of control; (dose: 375.0 mg/kg/injection, schedule: Q01DX Z (sc), vehicle: steriod suspending solution) 105 % of control; (dose: 500.0 mg/kg/injection, schedule: Q01DX Z (sc), vehicle: steriod suspending solution) 103 % of control.
`NNC(=O)C1CC2C=CC1C2` (centres undefined): the T/C was 100 % of control (dose: 100.0 mg/kg/injection, schedule: Q01DX009 (ip), vehicle: saline) and 103 % of control (dose: 200.0 mg/kg/injection, schedule: Q01DX009 (ip), vehicle: saline).
As for `Cc1c(F)c(Br)c([N+](=O)[O-])c(C)c1[N+](=O)[O-]`, the T/C runs as follows: under setting [10], 96 % of control; under setting [12], 102 % of control; under setting [14], 102 % of control.
Regarding `NC(=O)CNC(=O)CNC(=O)OCc1ccccc1` (Cbz-Gly-Gly-NH2), the T/C by setting is: under setting [1], 100 % of control; under setting [3], 92 % of control; under setting [5], 92 % of control.
For the compound `O/N=C/c1nc2ccccc2s1`, the T/C was 105 % of control under setting [11], 91 % of control under setting [13] and 118 % of control under setting [15].
In the case of `O=P1(Nc2ccccc2)OCCCN1Cc1ccccc1Cl` (centres undefined), the T/C is, setting by setting: (dose: 50.0 mg/kg/injection, schedule: Q01DX001 (ip), vehicle: carboxymethylcellulose (CMC)) 98 % of control; (dose: 100.0 mg/kg/injection, schedule: Q01DX001 (ip), vehicle: carboxymethylcellulose (CMC)) 98 % of control; (dose: 200.0 mg/kg/injection, schedule: Q01DX001 (ip), vehicle: carboxymethylcellulose (CMC)) 98 % of control; (dose: 400.0 mg/kg/injection, schedule: Q01DX001 (ip), vehicle: carboxymethylcellulose (CMC)) 93 % of control.
As for `CC(O)C(O)C(O)C(O)C(c1ccc(Cl)cc1)c1ccc(Cl)cc1` (centres undefined), the T/C runs as follows: (dose: 50.0 mg/kg/injection, schedule: Q01DX001 (ip), vehicle: saline) 104 % of control; under setting [9], 98 % of control.
Consider `C1CC2C3CCC(C3)C2C1` (centres undefined), for which the T/C under setting [2] is 94 % of control, the T/C under setting [4] is 90 % of control and the T/C under setting [6] was 97 % of control.
